Reference: patent publication US7109223B2, “Oxazolidin-2-one and thiazolidin-2-one derivatives for use as EP4 receptor agonists in the treatment of glaucoma” (Merck & Co. Inc., priority 2002, dated 2006)
Entries after “also recorded” stand apart in the source; their conditions may differ.

How the values were obtained:
TRAB-11 cells = test: Effect on intracellular cAMP in TRAB-11 cells; assay type: cell-based, rat
Procedure: (§1) RCT-1 and RCT-3 are clonal cell lines immortalized by SV-40 large T antigen from cells released from fetal rat calvair by a cmbination collagenase/hyaluronidase digestion. RCT-1 cells, derived from cells released during the first 10 minutes of digestion (fraction I), are cultured in RPMI 1640 medium (BRL) with 10% fetal bovine serum and 0.4 mg/ml G418 (BRL). These cells differentiate and express osteoblastic features upon retinoic acid treatment. RCT-3 cells, immortalized from osteoblast-enriched fraction III cells, are cultured in F-12 medium (BRL) with 5% Fetal bovine serum and 0.4 mg/ml G418. TRAB-11 cells are also immortalized by SV40 large T antigen from adult rat tibia and are cultured in RPMI 1640 medium with 10% FBS and 0.4 mg/ml G418. ROS 17/2.8 rat osteosarcoma cells are cultured in F-12 containing 5% FBS. Osteoblast-enriched (fraction III) primary fetal rat calvaria cells are obtained by collagenase/hyaluronidase digestion of calvariae of 19 day-old rat fetuses. See Rodan et al., Growth stimulation of rat calvaria osteoblastic cells by acidic FGF, Endocrinology, 121, 1919–1923 (1987), which is incorporated by reference herein in its entirety. Cells are released during 30–50 minutes digestion (fraction III) and are cultured in F-12 medium containing 5% FBS. […]

RCT-3 cells [1] = test: EP4 mRNA levels in RCT-3 cells (Northern blot); assay type: cell-based, rat
Procedure: as §1

bone marrow cells = test: Localization of EP4 mRNA expression in bone tissue (in situ hybridization); assay type: in vivo, rat; conditions: rats, single anabolic dose
Procedure: (§2) For mRNA localization experiments, 5-week old Sprague-Dawley rats (Charles River) are euthanized by CO2, their tibiae and calvariae are excised, cleaned of soft tissues and frozen immediately in liquid nitrogen. For EP4 regulation experiments, 6-week old rats are given a single injection of either vehicle (7% ethanol in sterile water) or an anabolic dose of PGE2 (Cayman Chemical, Ann Arbor, Mich.), 3–6 mg/kg in the same vehicle) intraperitoneally. Animals are euthanized at several time points post-injection and their tibiae and calvariae, as well as samples from lung and kidney tissues are frozen in liquid nitrogen.
Frozen tibiae are sectioned coronally at […] thickness and sections are mounted on charged slides (Probe On Plus, Fisher Scientific, Springfield, N.J.) and are kept at −70° C. until hybridization. cRNA probes are labeled with ^35S-UTPgS (ICN, Costa Mesa, Calif.) using a Riboprobe II kit (Promega Madison, Wis.). Hybridization is performed overnight at 50° C. […]
In situ hybridization is used in order to localize cells expressing EP4 in bone. In control experiment (vehicle-injected) rats, low expression of EP4 is detected in bone marrow cells. […]

bone tissue = test: EP4 and EP2 mRNA levels in vivo in bone tissue (Northern blot); set-up: species or system rat
Procedure: as §2
Total RNA is extracted from the tibial metaphysis or diaphysis and calvaria using a guanidinium isothiocyanate-phenol-chloroform method after pulverizing frozen bone samples by a tissue homogenizer. See P. Chomczynski et al., Single-step method of RNA isolation by acid guanidium thiocyanate-phenol-chloroform extraction, Analyt Biochem, 162, 156–159 (1987), which is incorporated by reference herein in its entirety. RNA samples ([…]) are separated on 0.9% agarose/formaldehyde gels and transferred onto nylon membranes (Boehringer Mannheim, Germany). Membranes are prehybridized in Hybrisol I (Oncor, Gaithersburg, Md.) and 0.5 mg/ml sonicated salmon sperm DNA (Boehringer) at 42° C. for 3 hours and are hybridized at 42° C. with rat EP2 and mouse EP4 cDNA probes labeled with [^32P]-dCTP (Amersham, Buckinghamshire, UK) by random priming using the rediprime kit (Amersham). After hybridization, membranes are washed 4 times in 2× SSC+0.1% SDS at room temperature for a total of 1 hour and once with 0.2× SSC+0.1% SDS at 55° C. for 1 hour and then exposed to Kodak XAR 2 film at −70° C. using intensifying screens. After developing the films, bound probes are removed twice with 0.1% SDS at 80° C. and membranes are hybridized with a human GAPDH (Glyceraldehyde 3-Phosphate Dehydrogenase) cDNA probe (purchased from Clontech, Palo Alto, Calif.) for loading control. […]

RCT-3 cells [2] = test: Effect on intracellular cAMP in RCT-3 cells; assay type: cell-based, rat
Procedure: as §1

[3] = tested on: ROS 17/2.8 rat osteosarcoma cells; test: Effect on intracellular cAMP in ROS 17/2.8 cells; assay type: cell-based
Procedure: as §1

RP-1 periosteal cells = test: EP4 and EP2 mRNA levels in RP-1 periosteal cells (Northern blot); assay type: cell-based, rat; conditions: RP-1 cells
Procedure: RP-1 periosteal cells are spontaneously immortalized from primary cultures of periosteal cells from tibae of 4-week old Sprague-Dawley rats and are cultured in DMEM (BRL, Gaithersburg, Md.) with 10% fetal bovine serum (JRH Biosciences, Lenexa, Kans.).
Total RNA is extracted from the tibial metaphysis or diaphysis and calvaria using a guanidinium isothiocyanate-phenol-chloroform method after pulverizing frozen bone samples by a tissue homogenizer. See P. Chomczynski et al., Single-step method of RNA isolation by acid guanidium thiocyanate-phenol-chloroform extraction, Analyt Biochem, 162, 156–159 (1987), which is incorporated by reference herein in its entirety. RNA samples ([…]) are separated on 0.9% agarose/formaldehyde gels and transferred onto nylon membranes (Boehringer Mannheim, Germany). Membranes are prehybridized in Hybrisol I (Oncor, Gaithersburg, Md.) and 0.5 mg/ml sonicated salmon sperm DNA (Boehringer) at 42° C. for 3 hours and are hybridized at 42° C. with rat EP2 and mouse EP4 cDNA probes labeled with [^32P]-dCTP (Amersham, Buckinghamshire, UK) by random priming using the rediprime kit (Amersham). After hybridization, membranes are washed 4 times in 2× SSC+0.1% SDS at room temperature for a total of 1 hour and once with 0.2× SSC+0.1% SDS at 55° C. for 1 hour and then exposed to Kodak XAR 2 film at −70° C. using intensifying screens. After developing the films, bound probes are removed twice with 0.1% SDS at 80° C. and membranes are hybridized with a human GAPDH (Glyceraldehyde 3-Phosphate Dehydrogenase) cDNA probe (purchased from Clontech, Palo Alto, Calif.) for loading control.
PGE2 enhances its own production via upregulation of cyclooxygenase 2 expression in osteoblasts and in bone tissue thus autoamplifying its own effects. PGE2 also increases the levels of EP4 mRNA. RP-1 cells are immortalized from a primary culture of adult rat tibia periosteum is examined. These cells express osteoblast phenotypic markers upon confluence and form mineralized bone matrix when implanted in nude mice. […]

CCCCC[C@H](O)/C=C/[C@H]1[C@H](O)CC(=O)[C@@H]1C/C=C\CCCC(=O)O [PGE2]
effect on intracellular cAMP (TRAB-11 cells): markedly induced | EP4 mRNA levels (RCT-3 cells [1]): no effect | expression of EP4 in bone marrow cells (bone marrow cells): increased | time of peak EP4 mRNA levels in the tibial diaphysis after injection (bone tissue; five-week-old male rats, 3–6 mg/Kg): 2 h | EP4 mRNA levels in the tibial diaphysis (bone tissue; five-week-old male rats, 3–6 mg/Kg, systemic administration): rapidly increased | EP2 mRNA in bone tissue (bone tissue; rats): does not induce | effect on intracellular cAMP (RCT-3 cells [2]): markedly induced | effect on intracellular cAMP [3]: no effect | EP2 mRNA (RP-1 periosteal cells): not expressed; also recorded: does not induce | EP4 mRNA levels (RP-1 periosteal cells; 10^−6M): rapidly increases | time of peak EP4 mRNA levels after treatment (RP-1 periosteal cells; 10^−6M): 2 h
